AC50 data for 96 compounds are collected here from PubChem BioAssay AID463229 (Broad Institute, 2010).

By AC50 is commonly meant the midpoint of the concentration-response curve, whichever way the signal moves.

Several values for one entry are separate records, joined by “and”; a condition that tells them apart may be missing. Identical values can stand only once.

The assay has as its system INS-1E rat beta cells, no cytokines, CellTiter-Glo ATP, 48 h. The assay is described as follows: ATP level change in INS-1E without cytokines, dose response, counter-screen for beta-cell apoptosis protection project, INS-1E rat cells, ATP luminescence, cherry pick (AID 463229).
With `COc1ccc(-c2c[n+]3c(n2-c2ccc(C)cc2)CCCCC3)cc1`, the AC50 is 0.317 µM.
`CCN(CC)S(=O)(=O)c1ccc(N2CCN(c3ccccc3OC)CC2)c(N)c1`: the AC50 is 5.19 µM.
Regarding `CCOC(=O)c1c(C)[nH]c(C(=O)N/N=C\c2ccccc2O)c1C`, the concentration at half-maximal activity (AC50) is 6.52 µM.
For `O=C(NCc1cccnc1)/C(=C/c1ccc(-c2cccc(Cl)c2)o1)S(=O)(=O)c1ccccc1`, the AC50 was 4.93 µM.
Then `Cc1cc(C(=O)NC2CCCc3c2cnn3-c2cccc(C)c2C)n(C)n1` (stereo unspecified), with 0.342 µM; and `c1ccc(-c2cc(-c3ccccc3)[n+](-c3ccccc3)c(-c3ccccc3)c2)cc1`, with 2.65 µM.
Then `O=C(Cc1ccccc1)N/N=C/c1ccc([N+](=O)[O-])s1`, with 7.26 µM.
Consider `O=C(c1ccc(-c2ccc(Cl)cc2)o1)N1CCN(c2ccc([N+](=O)[O-])cc2Cl)CC1`, for which the AC50 is 4.92 µM.
The same measure for `CCCC(=O)NC(c1ccc(OC)c(OC)c1)c1cc(Cl)c2cccnc2c1O` (stereo unspecified): 7.47 µM; for `Cc1cc(C)n(-c2nc(NCCN(C)C)c3c4c(sc3n2)CCCC4)n1`: 9.54 µM.
Then `CCN(CC)c1ccc(/C=N/Nc2nc(C)cc(C)n2)c(O)c1`, with 15.8 µM.
Regarding `Cn1nc(CC(=O)Nc2ccc3c(c2)OCCO3)c2ccccc2c1=O`, the AC50 is 5.63 µM.
As for `Cc1ccc2nc(C)c(CN3CCN(c4ccc([N+](=O)[O-])cc4Cl)CC3)n2c1`, the concentration at half-maximal activity (AC50) is 2.92 µM.
For `COCCn1c(SCC(=O)/C=C2\N(C)c3ccccc3C2(C)C)nnc1-c1ccncc1`, the AC50 is 13.1 µM.
With `CCc1cc(SC#N)cc(C)c1NC(=O)CCl`, the half-maximal activity concentration (AC50) is 4.52 µM.
With `O=C1C=C(N2CCCCC2)c2ccccc2C1=O`, the AC50 was 10.6 µM.
The same measure for `O=C(NCc1ccccc1)C1=C[C@@H](c2csc3ccccc23)C[C@@H](OCCCCO)O1`: 2.67 µM; for `CCC(=O)NC(c1ccc(C)cc1)c1cc(Cl)c2cccnc2c1O` (stereo unspecified): 7.97 µM; for `Cc1cc(C)n(-c2nc3ccccc3c(=O)n2OCC#N)n1`: 12.4 µM.
Then `O=C(NCc1cccnc1)/C(=C\c1ccc(-c2ccc(Br)cc2)o1)S(=O)(=O)c1ccccc1`, with 4.27 µM; and `C=CC[n+]1c(-c2ccc(OCC)cc2)csc1NNC(=O)Nc1ccccc1`, with 12.1 µM; and `O=C(Nc1cccnc1)c1cccnc1`, with 10.9 µM.
`COc1ccc(C(C)NCCC(c2ccc(OC(C)C)cc2)c2ccccc2OC)cc1` (stereo unspecified): the half-maximal activity concentration (AC50) was 7.99 µM.
The same measure for `CC(=O)c1ccc(NC(=S)NCc2cccnc2)cc1`: 5.53 µM; for `CCN(CC)c1ccc(/C=N/NC(=O)c2c(Cl)cnn2C)c(O)c1`: 1.5 µM; for `N#Cc1ccc(C(=O)Nc2nc(-c3cccs3)c(C(=O)C(F)(F)F)s2)cc1`: 4.37 µM.
Regarding `O=C(CCl)N(c1ccccc1)C1CCCCC1`, the AC50 is 5.56 µM.
Consider `Cc1nnc2ccc(Oc3ccc(-c4ccccc4)cc3)nn12`, for which the concentration at half-maximal activity (AC50) is 8.92 µM.
On to `Cc1ccc(C(=O)c2c(C)oc3c2C(=O)C(=O)c2ccccc2-3)cc1`, for which the AC50 is 2.92 µM.
The same measure for `CN1CCN(C(c2ccc(C(F)(F)F)cc2)c2ccc3cccnc3c2O)CC1` (stereo unspecified): 4.56 µM; for `COc1ccc(C)cc1Nc1n[n+](-c2ccccc2)c(-c2ccc(N(C)C)cc2)s1`: 2.9 µM.
For the compound `Cc1cc(C)c(S(=O)(=O)/N=C2/C=C(Sc3ncn[nH]3)C(=O)c3ccccc32)cc1C`, the AC50 is 7.58 µM.
Consider `CC(=O)Nc1ccc(NC2=C/C(=N/S(=O)(=O)c3cccs3)c3ccccc3C2=O)cc1`, for which the half-maximal activity concentration (AC50) was 7.66 µM.
For `CCOC(=O)c1cnc(-n2nc(C)cc2C)nc1NCc1ccccc1`, the AC50 was 7.8 µM.
For `Cc1onc(-c2c(Cl)cccc2Cl)c1C(=O)N/N=C(\N)COc1ccc(Cl)cc1`, the AC50 is 14.5 µM.
`CCCC(=O)NC(c1ccc(OC)cc1)c1ccc2cccnc2c1O` (stereo unspecified): the AC50 was 2.4 µM.
For the compound `CCN1/C(=C/c2cccc[n+]2C)Sc2ccc(OC)cc21`, the AC50 is 1.58 µM.
With `Cc1cc(N/N=C\c2ccc(Br)cc2)nc(-n2nc(C)cc2C)n1`, the half-maximal activity concentration (AC50) was 21.5 µM.
For `CN(C)c1ccc(/C=C/c2ccc3ccccc3n2)cc1`, the concentration at half-maximal activity (AC50) was 2.28 µM.
Turning to `c1ccc(-c2nnc(-c3ccccn3)nc2NC2CCCCC2)cc1`, the concentration at half-maximal activity (AC50) is 3.52 µM.
As for `Cc1cc(N/N=C/c2ccccc2[N+](=O)[O-])nc(-n2nc(C)cc2C)n1`, the half-maximal activity concentration (AC50) was 12.2 µM.
The same measure for `Cc1cccc(/C=N/NC(=O)c2ccc3c(c2)OCCO3)c1O`: 7.38 µM.
For the compound `O=C(OCn1ncc(Cl)c(Cl)c1=O)c1ccc(F)cc1`, the half-maximal activity concentration (AC50) was 7.02 µM.
As to `O=C(NCc1cccnc1)c1ccc([N+](=O)[O-])cc1`, the concentration at half-maximal activity (AC50) was 5.86 µM.
As to `Cc1cc(NC2CCCCC2)nc(NCc2ccccc2)n1`, the concentration at half-maximal activity (AC50) was 3.71 µM.
Regarding `CC1=C(CO)C(=O)OC([C@@H](C)C2CC[C@H]3C4C[C@H]5O[C@]56[C@@H](O)C=CC(=O)[C@]6(C)C4CC[C@]23C)C1` (stereo partly specified), the AC50 is 6.2 µM.
`CC(=O)Oc1c(I)cc(I)cc1C(=O)Nc1ccc(Cl)cc1`: the concentration at half-maximal activity (AC50) is 14.8 µM.
For `S=C(NCc1ccc(Cl)cc1)NC12CC3CC(CC(C3)C1)C2`, the AC50 is 13.9 µM.
With `Oc1ccc(Br)cc1/C=N/Nc1ccccn1`, the AC50 is 4.28 µM.
On to `CC1Sc2ccc(S(=O)(=O)N3CCC(C(=O)Nc4ccc(Cl)cc4)CC3)cc2NC1=O` (stereo unspecified), for which the half-maximal activity concentration (AC50) was 6.13 µM.
On to `CC1(C)CC(=O)C2=C(C1)OC1=C(C(=O)CC(C)(C)C1)C2c1ccc(O)cc1O`, for which the concentration at half-maximal activity (AC50) was 7.31 µM.
In the case of `C/C(=N\NC(=O)c1ccc(NS(=O)(=O)c2cccs2)cc1)c1ccccn1`, the concentration at half-maximal activity (AC50) was 13.3 µM.
For `CCC(CO)[n+]1c(C)cc(/C=C2\Sc3ccccc3N2Cc2ccccc2)cc1C` (stereo unspecified), the half-maximal activity concentration (AC50) was 0.765 µM.
The same measure for `CC(=O)c1cccc(N=c2scc(-c3ccc(S(=O)(=O)N4CCOCC4)cc3)n2CCO)c1`: 3.22 µM; for `Oc1ccc(Br)cc1-c1cc(-c2ccc(Cl)cc2)n[nH]1`: 11.1 µM.
As for `C=CCc1cccc(/C=N/NC(=O)CCC(=O)Nc2ccc(F)cc2)c1O`, the AC50 is 10.2 µM.
Turning to `Cc1cc(N2CCCC2=O)cc(C)c1S(=O)(=O)NCCOc1ccc(C(C)(C)C)cc1`, the half-maximal activity concentration (AC50) is 3 µM.
Take `Cc1cccc(/C=C/C(=O)c2ccc([N+](=O)[O-])o2)c1`: the half-maximal activity concentration (AC50) is 4.26 µM.
On to `O=C(c1cnc(N2CCN(c3ccccn3)CC2)c2ccccc12)N1CCN(c2cccc(Cl)c2)CC1`, for which the AC50 was 7.59 µM.
Take `Cc1ccc(N2C(=O)NC(=O)/C(=C\C=C\c3ccco3)C2=O)cc1C`: the AC50 is 5.85 µM.
`CCCC(=O)NC(c1ccccc1OC)c1ccc2cccnc2c1O` (stereo unspecified): the concentration at half-maximal activity (AC50) was 3.28 µM.
As to `COc1ccc2cc1Oc1ccc(cc1)C[C@H]1c3c(cc(OC)c4c3Oc3c(ccc5c3[C@H](C2)N(C)CC5)O4)CCN1C`, the AC50 is 7.68 µM.
On to `CC1=NN(c2nc3ccccc3[nH]2)C(=O)C1Cc1ccccc1` (stereo unspecified), for which the AC50 was 2.1 µM.
Regarding `O=C(N/N=C/c1c(O)ccc2ccccc12)c1cccnc1`, the AC50 was 4.07 µM.
For the compound `Oc1ccc(N=Nc2ccccc2C(F)(F)F)c2cccnc12`, the concentration at half-maximal activity (AC50) is 3.18 µM.
With `O=C(NCC1COc2ccccc2O1)c1cccc(S(=O)(=O)NCc2ccccc2)c1` (stereo unspecified), the concentration at half-maximal activity (AC50) is 8.8 µM.
For the compound `COc1cc(NC(C)CCCN)c2ncccc2c1` (stereo unspecified), the concentration at half-maximal activity (AC50) was 13.8 µM.
Take `CC1(C)CC(N2CCN(Cc3ccccc3)CC2)=CC(=[N+]2CCCCC2)C1`: the AC50 is 2.55 µM.
In the case of `Cc1ccc(/C=N/NC(=O)Cc2ccc(Cl)cc2)c(O)c1`, the AC50 was 12.3 µM.
Regarding `CC(C)c1ccc(COc2ccc(C(=O)N3CCOCC3)cc2)cc1`, the AC50 is 12.9 µM.
Turning to `COc1cnc(-c2ccccn2)nc1N(C)C`, the concentration at half-maximal activity (AC50) was 21.7 µM.
Then `O=C(N/N=C(\c1ccccc1)c1ccccn1)c1cccc([N+](=O)[O-])c1`, with 2.11 µM.
For the compound `N#CC1=C(N)N2C(=C(C#N)C1c1ccc(Br)cc1)Nc1ccccc12` (stereo unspecified), the AC50 was 1.87 µM.
`CCOC(=O)N1CCN(S(=O)(=O)c2ccc(C(=O)NNc3nc4ccc(Cl)cc4s3)cc2)CC1`: the AC50 was 5.43 µM.
As to `Cc1ccc(NC(=O)c2ccccc2NS(=O)(=O)c2ccc(Cl)s2)cc1`, the AC50 was 5.78 µM.
Turning to `CCCCCCCC[n+]1c(C)n(-c2ccccc2)c2ccc(NC(C)=O)cc21`, the AC50 is 3.76 µM.
Consider `C/C(=N\NC(=O)c1cc(Br)ccc1O)c1ccccn1`, for which the AC50 was 7.82 µM.
The same measure for `COc1ccc(CCNc2cc(N3CCN(C(=O)c4ccccc4OC)CC3)ccc2[N+](=O)[O-])cc1OC`: 8.74 µM; for `O=C(C1CCC1)N1CCc2cc(S(=O)(=O)Nc3ccc4c(c3)OCCO4)ccc21`: 7.92 µM; for `CCCCOc1ncnc2c1[nH]c1ccc(F)cc12`: 5.3 µM.
Then `O=C(Nc1ccc(F)cc1)Nc1cc(OCC(F)(F)F)cc(OCC(F)(F)F)c1`, with 2.25 µM.
In the case of `COc1ccc(/C=C/C(=O)c2ccc([N+](=O)[O-])o2)cc1`, the concentration at half-maximal activity (AC50) was 12.5 µM.
In the case of `C#CCn1c(=NC(=O)c2ccc(S(=O)(=O)N3CCc4ccccc4C3)cc2)sc2cc(S(N)(=O)=O)ccc21`, the AC50 is 3.64 µM.
In the case of `COc1cc(NC(=O)c2ccc([N+](=O)[O-])o2)ccc1NC(=O)c1cccs1`, the AC50 was 15.2 µM.
Turning to `CCCOc1nc2c(c(=O)n(C)c(=O)n2C)n1Cc1cccc2ccccc12`, the AC50 was 14.4 µM.
For the compound `C[C@H]1CCC/C=C/[C@@H]2C[C@H](O)C[C@H]2[C@H](O)/C=C/C(=O)O1`, the concentration at half-maximal activity (AC50) is 0.948 µM and 1 µM.
The same measure for `O=C(Nc1nc(-c2ccccc2)cs1)c1ccccc1NS(=O)(=O)c1ccc(F)cc1`: 4.56 µM; for `COCCNc1nc2c(c(=O)n(C)c(=O)n2C)n1Cc1cccc(C(F)(F)F)c1`: 12.1 µM; for `Cc1cccc(Oc2cc(NC(=O)c3ccccc3)cc([N+](=O)[O-])c2)c1`: 7.84 µM.
Turning to `Fc1ccc(C[n+]2c(-c3ccccc3)cc(-c3ccccc3)cc2-c2ccccc2)cc1`, the AC50 is 3.99 µM.
With `O=C(NCCCn1ccnc1)c1ccc(N2CCCCCC2)c([N+](=O)[O-])c1`, the AC50 was 8.09 µM.
Turning to `O=C(Nc1cccc(Cl)c1)Nc1nnc(CSCCOc2ccc(Cl)cc2)s1`, the concentration at half-maximal activity (AC50) was 5.39 µM.
For the compound `COc1cccc(/C=N/NC(=O)c2ccoc2C)c1O`, the AC50 is 11 µM.
Take `CC1(C)CCN2CCC(C)(C)c3c(O)ccc1c32`: the AC50 is 13.2 µM.
In the case of `O=C(N/N=C/c1sc2ccccc2c1O)c1cccc2ccccc12`, the half-maximal activity concentration (AC50) is 4.8 µM.
Then `CCCCCCCCCCOC(=O)Cn1c(COc2ccc(OC)cc2)[n+](C)c2ccccc21`, with 4.96 µM and 3.95 µM.
